Common to all, as to assay type: cell-based
The target of one assay is T1, Ba/F3 FIG-ROS cells (Homo sapiens, UniProt P08922).
T1 construct: fused on or other part: GFP is co-expressed from an IRES in pMIG and is not fused; Q9HD26 (Golgi-associated PDZ and coiled-coil motif-containing protein)
The assay can be described thus: Cell viability (MTS) assay, Ba/F3 FIG-ROS. Conditions: read-out: IC50 (50% growth inhibitory concentration); Ba/F3 FIG-ROS cells, 72 hours, MTS. From the text: Ba/F3 cell lines were maintained at densities of 0.5×10^6 to 1.5×10^6 per ml of media. FIG-ROS and SLC-ROS Ba/F3 lines were created by infecting the parental Ba/F3 with retrovirus expressing either human FIG-ROS-S (indicated FIG-ROS herein) or SLC-ROS-S (indicated SLC-ROS herein). Stable transfectant lines were sorted for GFP expression on a FACS Aria® flow cytometer. Cells were counted daily using Guava ViaCount® reagent and Guava Personal Cell Analysis® flow cytometer. […] Early passage NIH3T3 cells were infected with retrovirus expressing either FIG-ROS or SLC-ROS and sorted for GFP expression as described above for Ba/F3 cells. […] This media is referred to as RPMI-10% FBS herein.
The FIG-ROS-S (FIG-ROS) fusion protein has been reported in non-small cell lung cancers (NSCLC), glioblastomas, and cholangiocarcinomas.

For another assay, the target named is T2, Ba/F3 SLC-ROS cells (Homo sapiens, UniProt P08922).
T2 construct: SLC-ROS-S (SLC-ROS) was cloned from cDNA made from HCC78 cells; fused on or other part: GFP is co-expressed from an IRES in pMIG and is not fused; O95436 (Sodium-dependent phosphate transport protein 2B)
The assay can be described thus: Cell viability (MTS) assay, Ba/F3 SLC-ROS. Conditions: 72 hours, read-out: IC50 (the source's name). The method, then:
(§1) The parental Ba/F3 cell line was cultured in RPMI 1640 medium with 10% FBS, L-glutamine, penicillin/streptomycin and 15% WEHI-conditioned media. Ba/F3 cell lines were maintained at densities of 0.5×10^6 to 1.5×10^6 per ml of media. FIG-ROS and SLC-ROS Ba/F3 lines were created by infecting the parental Ba/F3 with retrovirus expressing either human FIG-ROS-S (indicated FIG-ROS herein) or SLC-ROS-S (indicated SLC-ROS herein). Stable transfectant lines were sorted for GFP expression on a FACS Aria® flow cytometer. Cells were counted daily using Guava ViaCount® reagent and Guava Personal Cell Analysis® flow cytometer. […] Early passage NIH3T3 cells were infected with retrovirus expressing either FIG-ROS or SLC-ROS and sorted for GFP expression as described above for Ba/F3 cells. HCC78 cells were cultured in RPMI 1640 medium with 10% FBS, L-glutamine, and penicillin/streptomycin. This media is referred to as RPMI-10% FBS herein.
(§2) […]. The Ba/F3 parental line was also tested. (O'Dwyer M E and Druker B J, Lancet Oncology 1, 207-211 (2000); Walters D K et al, Cancer Cell 10, 65-75 (2006); and Heukamp L C et al, Science Translational Medicine 4, 141ra191 (2012); […].

Another assay concerns the target Ba/F3 ALK F1174L cells (Homo sapiens, UniProt Q9UM73, F1174L, cells depend on it). Put plainly: Cell viability (MTS) assay, Ba/F3 ALK F1174L. Conditions: 72 hours, read-out: IC50 (the source's name).
For the next assay, the target named is Ba/F3 Bcr-Abl cells (Homo sapiens, UniProt P00519). Put plainly: Cell viability (MTS) assay, Ba/F3 Bcr-Abl. Conditions: read-out: IC50 (insensitive/resistant up to stated concentration).
The next assay concerns the target Ba/F3 JAK3 A572V cells (Homo sapiens, UniProt P52333, A572V, cells depend on it). Put plainly: Cell viability (MTS) assay, Ba/F3 JAK3 A572V. Conditions: read-out: IC50 (insensitive/resistant up to stated concentration).
The test system of the next assay is Ba/F3 parental cells. The assay can be described thus: Cell viability (MTS) assay, Ba/F3 parental. Conditions: Ba/F3 parental cells; read-out: IC50 (insensitive/resistant up to stated concentration). The method, then: as §1, §2

Consider `CNC(=O)c1c(F)cccc1Nc1nc(Nc2cc3c(cc2OC)CCN3C(=O)CN(C)C)nc2[nH]ccc12` [GSK1838705A], for which the GI50 at Ba/F3 FIG-ROS cells is 250 nM; on Ba/F3 SLC-ROS cells, 1000 nM; on Ba/F3 ALK F1174L cells, 10 nM; on Ba/F3 Bcr-Abl cells, more than 10000 nM; on Ba/F3 JAK3 A572V cells it was more than 10000 nM. Further, the IC50 with Ba/F3 parental cells is more than 10000 nM.

Values taken from patent US20140243332A1, “METHODS OF TREATING CANCERS CHARACTERIZED BY ABERRENT ROS1 ACTIVITY” (Oregon Health & Science University, priority 2013, published 2014).
